Experiment [1] is described as follows: inhibitors of Vif binding to APOBEC3G peptide, primary screen, biochemical, TR-FRET, GST-Vif 1-94, biotin-A3G peptide, dose response retest (AID 1117319).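 Further: inhibitors lower the FRET signal by blocking Vif and A3G binding.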 Type of experiment: functional. Background: In TR-FRET formats the signal depends on donor and acceptor labels being close together.
The next experiment has as its target Cytochrome P450 2C9 (Homo sapiens, UniProt P11712).
Another experiment deals with Cytochrome P450 2C19 (Homo sapiens, UniProt P33261). The experiment is described as follows: Cytochrome panel assay with activity outcomes. Panel member name: p450-cyp2c19 Compounds with AC50 equal or less than 10 uM are considered active. Type of experiment: functional. Conditions: read-out: AC50.
Cytochrome P450 2C19, sequence (P33261 whole entry): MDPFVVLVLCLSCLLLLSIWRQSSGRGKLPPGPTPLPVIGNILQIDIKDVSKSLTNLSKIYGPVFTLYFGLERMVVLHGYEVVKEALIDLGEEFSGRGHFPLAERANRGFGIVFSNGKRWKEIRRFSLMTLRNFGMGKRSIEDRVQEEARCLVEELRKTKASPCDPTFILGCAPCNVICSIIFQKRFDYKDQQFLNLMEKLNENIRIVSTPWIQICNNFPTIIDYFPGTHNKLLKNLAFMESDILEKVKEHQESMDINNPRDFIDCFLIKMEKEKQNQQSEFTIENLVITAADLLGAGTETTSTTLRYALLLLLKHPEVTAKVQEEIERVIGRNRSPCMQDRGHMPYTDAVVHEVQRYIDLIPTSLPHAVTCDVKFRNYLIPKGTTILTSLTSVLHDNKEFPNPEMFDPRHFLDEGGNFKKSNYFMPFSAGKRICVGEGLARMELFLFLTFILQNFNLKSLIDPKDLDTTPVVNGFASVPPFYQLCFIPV
The nature of experiment [2]: P. falciparum late gametocyte killing, dose response, luminescence (AID 1117278).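 Further: gametocytes exposed to compound for 24 hours.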 The format is functional, cell-based.
Experiment [3] can be described thus: Jurkat T cell cytotoxicity, dose response, cytotoxicity control for P. falciparum gametocyte viability project, luminescence (AID 1117277).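 Further: potency reflects loss of cellular ATP meaning fewer viable cells.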 Type of experiment: functional, cell-based.
The target of experiment [4] is E3 ubiquitin-protein ligase Mdm2 (Homo sapiens, UniProt Q00987). Description: enhancers of MDM2-luciferase reporter signal, concentration-effect titration, project on inhibitors of MDM2 ubiquitin ligase, cellular assay, luminescent readout, 384-well plate format (AID 1394).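 Further: MDM2 E3 inhibitors raise luminescence so EC50 is for signal enhancement.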 The format is functional.
E3 ubiquitin-protein ligase Mdm2, sequence (Q00987 whole entry): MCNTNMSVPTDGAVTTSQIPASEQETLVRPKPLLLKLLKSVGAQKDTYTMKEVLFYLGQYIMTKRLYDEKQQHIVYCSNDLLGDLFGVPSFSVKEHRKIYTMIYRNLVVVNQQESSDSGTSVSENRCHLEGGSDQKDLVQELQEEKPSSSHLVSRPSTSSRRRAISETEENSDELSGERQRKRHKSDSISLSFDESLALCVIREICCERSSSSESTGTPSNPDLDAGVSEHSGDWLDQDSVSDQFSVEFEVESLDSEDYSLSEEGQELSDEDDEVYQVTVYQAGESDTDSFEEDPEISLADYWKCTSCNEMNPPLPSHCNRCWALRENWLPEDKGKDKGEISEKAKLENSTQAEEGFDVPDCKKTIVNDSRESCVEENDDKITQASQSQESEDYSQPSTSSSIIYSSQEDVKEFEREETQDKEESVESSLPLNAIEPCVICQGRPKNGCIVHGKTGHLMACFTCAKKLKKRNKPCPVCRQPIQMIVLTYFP
Experiment [5] concerns the target Bifunctional protein GlmU (Mycobacterium tuberculosis, UniProt P9WMN3). Description: Inhibitors of Mycobacterial Glucosamine-1-phosphate acetyl transferase (GlmU). Secondary screen. Also noted: species or system Mycobacterium tuberculosis H37Rv.
The next experiment has as its target T1, Protein skinhead-1 (Caenorhabditis elegans, UniProt P34707).
T1 sequence (P34707 whole entry): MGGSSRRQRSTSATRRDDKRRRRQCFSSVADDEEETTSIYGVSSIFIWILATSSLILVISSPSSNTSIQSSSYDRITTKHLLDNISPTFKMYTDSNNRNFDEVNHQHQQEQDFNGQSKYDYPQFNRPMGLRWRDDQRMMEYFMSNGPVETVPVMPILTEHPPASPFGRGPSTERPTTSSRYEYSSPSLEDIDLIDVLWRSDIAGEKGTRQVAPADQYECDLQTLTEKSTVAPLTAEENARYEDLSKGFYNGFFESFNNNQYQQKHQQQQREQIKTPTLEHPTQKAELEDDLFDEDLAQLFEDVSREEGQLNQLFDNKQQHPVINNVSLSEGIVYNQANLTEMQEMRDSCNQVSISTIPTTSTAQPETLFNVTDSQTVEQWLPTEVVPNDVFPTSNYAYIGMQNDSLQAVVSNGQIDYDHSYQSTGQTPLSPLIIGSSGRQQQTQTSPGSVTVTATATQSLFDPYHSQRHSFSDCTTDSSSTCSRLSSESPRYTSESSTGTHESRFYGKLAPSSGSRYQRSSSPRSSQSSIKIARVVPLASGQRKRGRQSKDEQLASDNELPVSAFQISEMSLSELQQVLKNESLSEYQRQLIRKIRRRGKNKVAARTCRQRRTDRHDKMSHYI
The format is functional.

A further experiment addresses NADPH oxidase 1 (Homo sapiens, UniProt Q9Y5S8). Description: Late stage results from the probe development effort to identify inhibitors of NOX1: HEK/293 IC50. [Related pubchem assays: 1796 (Summary AID (NOX1)), 2752 (Primary screen (NOX1 inhibitors, synthesized analogs set 2)), 2664 (Primary screen (NOX1 inhibitors, synthesized analogs)), 1792 (Primary Screen (NOX1)), 2545 (Confirmation screen (NOX1 …. The format is functional.

Experiment [6] concerns the target E3 ubiquitin-protein ligase UHRF1 (Homo sapiens, UniProt Q96T88). Description: Counterscreen for inhibitors of 5-meCpG-binding domain protein 2 (MBD2): TRFRET-based biochemical high throughput dose response assay to identify inhibitors of binding of ubiquitin-like with PHD and ring finger domains 1 (UHRF1) to methylated oligonucleotide. On the technique in general: A counterscreen serves to expose hits that act by an unwanted route or on another target.

The target in experiment [7] is NAD-dependent protein deacylase sirtuin-5, mitochondrial (Homo sapiens, UniProt Q9NXA8). Description: SIRT5 desuccinylase inhibitors, dose response, biochemical, fluorescence imaging, cherry-pick, set 5 (AID 720591).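 Further: desuccinylation of succinyl peptide AMC substrate read as fluorescence after trypsin release; potency of inhibitors that lower fluorescence and may act on trypsin instead.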
NAD-dependent protein deacylase sirtuin-5, mitochondrial, sequence (Q9NXA8 whole entry): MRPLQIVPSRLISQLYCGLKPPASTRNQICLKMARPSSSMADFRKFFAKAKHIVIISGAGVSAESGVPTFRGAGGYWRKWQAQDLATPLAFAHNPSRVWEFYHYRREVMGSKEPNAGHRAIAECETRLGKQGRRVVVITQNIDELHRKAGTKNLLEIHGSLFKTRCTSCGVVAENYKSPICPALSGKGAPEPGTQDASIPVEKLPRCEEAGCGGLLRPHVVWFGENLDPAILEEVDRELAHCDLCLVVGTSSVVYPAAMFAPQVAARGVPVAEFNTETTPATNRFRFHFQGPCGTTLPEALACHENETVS

Active and inactive are the calls of the source.

E3 ubiquitin-protein ligase UHRF1, sequence (Q96T88 whole entry, the tested form may be a part): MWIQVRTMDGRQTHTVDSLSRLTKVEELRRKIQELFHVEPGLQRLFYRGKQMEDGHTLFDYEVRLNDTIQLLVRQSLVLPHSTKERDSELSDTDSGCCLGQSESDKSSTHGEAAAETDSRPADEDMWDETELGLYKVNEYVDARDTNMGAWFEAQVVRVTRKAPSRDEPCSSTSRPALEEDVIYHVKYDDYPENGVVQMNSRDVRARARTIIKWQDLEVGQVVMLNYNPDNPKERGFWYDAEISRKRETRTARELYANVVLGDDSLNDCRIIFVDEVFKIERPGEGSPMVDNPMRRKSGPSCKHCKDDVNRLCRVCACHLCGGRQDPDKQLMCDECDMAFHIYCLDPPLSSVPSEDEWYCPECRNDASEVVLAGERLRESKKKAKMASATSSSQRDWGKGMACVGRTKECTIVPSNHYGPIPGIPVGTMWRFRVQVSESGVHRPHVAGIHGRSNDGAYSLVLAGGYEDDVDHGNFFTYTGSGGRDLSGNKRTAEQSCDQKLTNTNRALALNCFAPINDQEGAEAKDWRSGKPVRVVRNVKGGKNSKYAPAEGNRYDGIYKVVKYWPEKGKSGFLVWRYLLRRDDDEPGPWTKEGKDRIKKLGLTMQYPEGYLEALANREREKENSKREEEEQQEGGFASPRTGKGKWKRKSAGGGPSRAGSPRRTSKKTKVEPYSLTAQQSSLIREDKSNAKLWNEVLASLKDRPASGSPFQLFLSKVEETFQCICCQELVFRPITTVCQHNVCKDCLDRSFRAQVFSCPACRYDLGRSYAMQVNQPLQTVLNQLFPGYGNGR
Cytochrome P450 2C9, sequence (P11712 whole entry): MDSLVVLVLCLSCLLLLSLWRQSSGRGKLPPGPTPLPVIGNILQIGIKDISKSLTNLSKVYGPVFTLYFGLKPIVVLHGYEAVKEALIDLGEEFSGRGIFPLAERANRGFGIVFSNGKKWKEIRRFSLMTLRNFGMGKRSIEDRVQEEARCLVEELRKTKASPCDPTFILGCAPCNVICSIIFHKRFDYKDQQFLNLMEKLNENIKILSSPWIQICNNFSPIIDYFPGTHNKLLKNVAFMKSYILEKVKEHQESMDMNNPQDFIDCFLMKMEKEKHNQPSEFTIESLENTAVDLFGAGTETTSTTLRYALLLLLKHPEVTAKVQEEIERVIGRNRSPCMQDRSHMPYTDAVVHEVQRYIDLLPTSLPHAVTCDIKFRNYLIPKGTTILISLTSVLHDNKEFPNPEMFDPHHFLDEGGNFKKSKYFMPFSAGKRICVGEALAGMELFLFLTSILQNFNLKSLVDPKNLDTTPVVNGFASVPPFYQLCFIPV
NADPH oxidase 1, sequence (Q9Y5S8 whole entry): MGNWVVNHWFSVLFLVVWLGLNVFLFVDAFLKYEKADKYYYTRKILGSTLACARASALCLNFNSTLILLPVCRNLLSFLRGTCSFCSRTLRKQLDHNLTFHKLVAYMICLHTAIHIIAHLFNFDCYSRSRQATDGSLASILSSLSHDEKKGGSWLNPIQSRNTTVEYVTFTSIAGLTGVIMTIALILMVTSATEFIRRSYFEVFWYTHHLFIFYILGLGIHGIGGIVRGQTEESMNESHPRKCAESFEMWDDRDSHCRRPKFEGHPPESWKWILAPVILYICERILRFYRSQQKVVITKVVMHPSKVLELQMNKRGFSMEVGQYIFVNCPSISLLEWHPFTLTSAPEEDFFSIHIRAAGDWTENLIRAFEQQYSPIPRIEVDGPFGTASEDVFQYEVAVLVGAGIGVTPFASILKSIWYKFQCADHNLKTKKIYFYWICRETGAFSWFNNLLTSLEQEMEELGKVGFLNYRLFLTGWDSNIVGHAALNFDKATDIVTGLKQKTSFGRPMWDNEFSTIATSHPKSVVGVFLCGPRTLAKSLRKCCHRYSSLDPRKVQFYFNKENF
Bifunctional protein GlmU, sequence (P9WMN3 whole entry): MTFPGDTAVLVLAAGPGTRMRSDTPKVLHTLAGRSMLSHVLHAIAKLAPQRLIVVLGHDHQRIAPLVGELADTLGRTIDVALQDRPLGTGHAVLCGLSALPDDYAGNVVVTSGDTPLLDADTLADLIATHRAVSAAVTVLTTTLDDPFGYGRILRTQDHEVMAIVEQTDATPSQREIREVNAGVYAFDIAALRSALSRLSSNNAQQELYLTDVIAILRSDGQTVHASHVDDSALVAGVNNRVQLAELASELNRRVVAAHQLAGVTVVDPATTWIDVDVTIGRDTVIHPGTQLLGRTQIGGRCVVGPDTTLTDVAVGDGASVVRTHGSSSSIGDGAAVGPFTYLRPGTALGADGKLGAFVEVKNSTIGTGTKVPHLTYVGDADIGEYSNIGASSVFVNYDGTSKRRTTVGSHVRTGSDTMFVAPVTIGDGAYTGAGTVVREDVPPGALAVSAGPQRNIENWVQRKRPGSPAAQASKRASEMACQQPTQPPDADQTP

`COC(=O)[C@@]1(Cc2ccc(OC)cc2)[C@H]2c3cc(C(=O)N(C)C)n(C[C@H](O)CO)c3C[C@H]2CN1C(=O)c1ccccc1`: the IC50 – broadly, the concentration needed to halve the response being measured – in experiment [1] is > 100 µM (active). For the same compound, the AC50 at Cytochrome P450 2C9 and on Cytochrome P450 2C19 was 31.6 µM (inconclusive) throughout.

With `C=CCn1c(SCC(=O)NCc2ccc3c(c2)OCO3)nc2scc(-c3ccc(F)cc3)c2c1=O`, the IC50 in experiment [2] is > 109 µM (inactive); in [3] it was 68.6 µM (inactive).

In the case of `CCN(CC)c1ccc(/C=C2/C(=O)c3ccc(C(=O)O)cc3C2=O)cc1`, the EC50 (as a rule, the concentration that produces a half-maximal response) in [4] was 70 nM (active). Moreover, the IC50 was 34.3 µM (active) in experiment [5] and 20.9 µM (active) at Protein skinhead-1.

As for `O=C(Oc1ccccc1N1CCCCC1)c1sc2ccccc2c1Cl`, the IC50 at NADPH oxidase 1 was 2.31 µM (active).

Consider `OCCCNCc1cccc2ccccc12`, for which the IC50 in experiment [6] is > 43.9 µM (inactive).

As to `COc1ccc(OC)c(NC(=O)C2CCN(C(=O)c3cccs3)CC2)c1`, the concentration at half-maximal activity (AC50) – broadly, the midpoint of the concentration-response curve, whichever way the signal moves – in [7] was 26.6 µM (active).

For the origin of these results see ChEMBL document CHEMBL1201862, “PubChem BioAssay data set” (2004).
